“And” between values parts separate entries of the source, which are not always exact repeats. Equal entries are not always repeated. ± gives the expanded uncertainty stated by the source.
Conditions: Liquid

CC(C)CCCC(C)CCCC(C)CCCCC(C)CCCC(C)CCCC(C)C (stereo not drawn) [2,6,10,15,19,23-hexamethyltetracosane]
Conditions	viscosity
333.15 K, 9160 kPa, quartz resonator viscometer	9 ± 0.4 mPa·s
333.15 K, 19900 kPa, quartz resonator viscometer	10.9 ± 0.4 mPa·s
333.15 K, 30240 kPa, quartz resonator viscometer	13 ± 0.5 mPa·s and 13.1 ± 0.5 mPa·s
333.15 K, 40000 kPa, quartz resonator viscometer	15.3 ± 0.6 mPa·s
333.15 K, 49340 kPa, quartz resonator viscometer	17.7 ± 0.7 mPa·s
333.15 K, 60990 kPa, quartz resonator viscometer	21.4 ± 0.9 mPa·s
333.15 K, 70280 kPa, quartz resonator viscometer	25 ± 1 mPa·s
333.15 K, 80900 kPa, quartz resonator viscometer	28.5 ± 1.2 mPa·s and 28.6 ± 1.2 mPa·s
338.15 K, 50600 kPa, Falling or rolling sphere viscometry	15.56 ± 0.39 mPa·s
338.15 K, 102800 kPa, Falling or rolling sphere viscometry	32.94 ± 0.81 mPa·s
338.15 K, 150200 kPa, Falling or rolling sphere viscometry	60.9 ± 1.5 mPa·s
338.15 K, 198400 kPa, Falling or rolling sphere viscometry	108.9 ± 3.7 mPa·s
338.15 K, 249700 kPa, Falling or rolling sphere viscometry	194 ± 9.3 mPa·s
338.15 K, 272700 kPa, Falling or rolling sphere viscometry	243.8 ± 13 mPa·s
338.15 K, 299800 kPa, Falling or rolling sphere viscometry	327.6 ± 21 mPa·s
338.15 K, 349200 kPa, Falling or rolling sphere viscometry	538.5 ± 43 mPa·s and 531 ± 42 mPa·s
343.15 K, 10000 kPa, Falling or rolling sphere viscometry	7.3 ± 0.4 mPa·s
343.15 K, 15000 kPa, Falling or rolling sphere viscometry	8 ± 0.4 mPa·s
343.15 K, 25000 kPa, Falling or rolling sphere viscometry	9.4 ± 0.5 mPa·s
343.15 K, 50000 kPa, Falling or rolling sphere viscometry	13.6 ± 0.8 mPa·s
343.15 K, 75000 kPa, Falling or rolling sphere viscometry	19.2 ± 1.2 mPa·s and 18.7 ± 1.2 mPa·s
343.15 K, 100000 kPa, Falling or rolling sphere viscometry	26.5 ± 1.7 mPa·s and 27.2 ± 1.6 mPa·s
343.15 K, 125000 kPa, Falling or rolling sphere viscometry	36.2 ± 2.5 mPa·s and 38.1 ± 2.3 mPa·s
343.15 K, 150000 kPa, Falling or rolling sphere viscometry	49.1 ± 3.5 mPa·s and 52 ± 3.2 mPa·s
343.15 K, 175000 kPa, Falling or rolling sphere viscometry	69.9 ± 4.4 mPa·s
343.15 K, 200000 kPa, Falling or rolling sphere viscometry	92.8 ± 6.2 mPa·s
343.15 K, 225000 kPa, Falling or rolling sphere viscometry	122.1 ± 8.7 mPa·s
343.15 K, 250000 kPa, Falling or rolling sphere viscometry	159.6 ± 12 mPa·s
348.15 K, 20000 kPa, Falling or rolling sphere viscometry	7.45 ± 0.27 mPa·s
348.15 K, 40000 kPa, Falling or rolling sphere viscometry	10.15 ± 0.37 mPa·s
348.15 K, 60000 kPa, Falling or rolling sphere viscometry	13.51 ± 0.49 mPa·s
348.15 K, 80000 kPa, Falling or rolling sphere viscometry	17.79 ± 0.65 mPa·s
348.15 K, 100000 kPa, Falling or rolling sphere viscometry	23.08 ± 0.84 mPa·s
348.15 K, 120000 kPa, Falling or rolling sphere viscometry	29.61 ± 1.1 mPa·s
348.15 K, 140000 kPa, Falling or rolling sphere viscometry	37.63 ± 1.4 mPa·s
348.15 K, 160000 kPa, Falling or rolling sphere viscometry	48.09 ± 1.8 mPa·s
348.15 K, 180000 kPa, Falling or rolling sphere viscometry	60.38 ± 2.2 mPa·s
348.15 K, 198300 kPa, Falling or rolling sphere viscometry	70.83 ± 1.8 mPa·s
348.15 K, 200000 kPa, Falling or rolling sphere viscometry	74.91 ± 2.8 mPa·s
348.15 K, 200400 kPa, Falling or rolling sphere viscometry	72.63 ± 1.9 mPa·s
348.15 K, 300600 kPa, Falling or rolling sphere viscometry	202.9 ± 10 mPa·s
348.15 K, 349800 kPa, Falling or rolling sphere viscometry	327.6 ± 21 mPa·s
363.15 K, 10200 kPa, Falling or rolling sphere viscometry	4.36 ± 0.11 mPa·s
363.15 K, 21000 kPa, Falling or rolling sphere viscometry	5.15 ± 0.13 mPa·s
363.15 K, 30900 kPa, Falling or rolling sphere viscometry	5.97 ± 0.15 mPa·s
363.15 K, 40700 kPa, Falling or rolling sphere viscometry	6.84 ± 0.17 mPa·s
363.15 K, 50600 kPa, Falling or rolling sphere viscometry	7.82 ± 0.19 mPa·s
363.15 K, 60600 kPa, Falling or rolling sphere viscometry	8.94 ± 0.22 mPa·s
363.15 K, 70700 kPa, Falling or rolling sphere viscometry	10.18 ± 0.25 mPa·s
363.15 K, 80600 kPa, Falling or rolling sphere viscometry	11.49 ± 0.29 mPa·s
363.15 K, 91000 kPa, Falling or rolling sphere viscometry	13.06 ± 0.32 mPa·s
363.15 K, 100000 kPa, Falling or rolling sphere viscometry	14.59 ± 0.36 mPa·s and 14.2 ± 0.8 mPa·s
363.15 K, 120400 kPa, Falling or rolling sphere viscometry	18.36 ± 0.46 mPa·s
363.15 K, 125000 kPa, Falling or rolling sphere viscometry	19.9 ± 1.1 mPa·s
363.15 K, 150000 kPa, Falling or rolling sphere viscometry	26.8 ± 1.5 mPa·s
363.15 K, 150300 kPa, Falling or rolling sphere viscometry	25.56 ± 0.63 mPa·s
363.15 K, 175000 kPa, Falling or rolling sphere viscometry	35.1 ± 2 mPa·s
363.15 K, 200000 kPa, Falling or rolling sphere viscometry	45 ± 2.6 mPa·s
363.15 K, 200200 kPa, Falling or rolling sphere viscometry	42.82 ± 1.1 mPa·s
363.15 K, 225000 kPa, Falling or rolling sphere viscometry	56.7 ± 3.3 mPa·s
363.15 K, 225600 kPa, Falling or rolling sphere viscometry	55.03 ± 1.3 mPa·s
363.15 K, 246900 kPa, Falling or rolling sphere viscometry	66.23 ± 1.7 mPa·s
363.15 K, 250000 kPa, Falling or rolling sphere viscometry	70.4 ± 4.2 mPa·s

— the NIST ThermoML archive (doi:10.1016/j.jct.2013.10.001)
